For test [1], the target named is recombinant human baculovirus-expressed AXL (Homo sapiens (Human), UniProt P30530). Briefly: AXL Kinase Assay (HTRF KinEASE). Conditions: average of two or more determinations. It is filed as biochemical. The procedure:
The ability of compounds to inhibit the kinase activity of recombinant human baculovirus-expressed AXL was measured by homogeneous TRF (HTRF) using Cisbio's KinEASE™ assay system in white 384-well Optiplates. Assay buffer contained 1 mM DTT, 2 mM MnCl2, 2% DMSO, […] supplement enzymatic buffer, and 1× enzymatic buffer. A 2× concentration of tyrosine kinase (TK) substrate-biotin/ATP mixture made in assay buffer was added to plates at 10 μL/well using the Multidrop Combi (Thermo Fisher Scientific, Waltham, Mass.). […] Compounds (100 nL), diluted in 100% DMSO on the Biomek FX, (Beckman Coulter, Inc., Brea, Calif.), were transferred to the assay plates using the Biomek FX pintool (2.5% final DMSO in assay). […] Plates were sealed, briefly shaken and incubated at 25° C. for 30 minutes. […] Plates were sealed, briefly shaken and incubated at 25° C. for 1 hour.
Inhibition curves for compounds were generated by plotting percent control activity versus log 10 of the concentration of compound. IC50 values were calculated by nonlinear regression using the sigmoidal dose-response (variable slope) equation in GraphPad Prism as follows: y=bottom+(top−bottom)/(1+10(log IC50−x)*Hill Slope) where y is the % kinase activity at a given concentration of compound, x is the logarithm of the concentration of compound, bottom is the % of control kinase activity at the highest compound concentration tested, and top is the % of control kinase activity at the lowest compound concentration examined. The values for bottom and top were fixed at 0 and 100, respectively.

For test [2], the target named is recombinant human baculovirus-expressed cMET (Homo sapiens (Human), UniProt P08581). Briefly: C-MET Kinase Assay (HTRF KinEASE). It is filed as biochemical. The method, boiled down: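 HTRF KinEASE format with recombinant human baculovirus-expressed cMET at 8 ng/mL, biotinylated peptide at 0.1 μM and ATP at 0.02 μM. IC50 came from percent control activity versus log concentration, fitted by nonlinear regression to a variable-slope sigmoidal equation with bottom fixed at 0 and top at 100.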

Where [3] appears, read: average of two or more determinations, read-out: c-MET IC50.

The IC50 is the midpoint of a concentration-inhibition curve.

SMILES strings stand for the structures. Read-outs that look alike come from different tables or passages of the source. Bounds are passed on as bounds.

As for `CCC(C)Cn1c(=O)c(C(=O)Nc2ccc(Oc3ccnc4cc(OC)c(OC)cc34)c(F)c2)nn(C)c1=O` (racemic) [Example 130, ±2-Methyl-4-(2-methyl-butyl)-3,5-dioxo-2,3,4,5-tetrahydro-[1,2,4]triazine-6-carboxylic acid [4-(6,7-dimethoxy-quinolin-4-yloxy)-3-fluoro-phenyl]-amide], the IC50 in test [1] was below 10 nM; in test [2] (setting [3]), 10 to 100 nM.
In the same order, the values of `CCn1cc(C(=O)Nc2ccc(Oc3ccnc4cc(OC)c(OC)cc34)c(F)c2)c(=O)n(-c2ccc(F)cc2)c1=O` [Example 1, 1-Ethyl-3-(4-fluorophenyl)-2,4-dioxo-1,2,3,4-tetrahydropyrimidine-5-carboxylicacid [4-(6,7-dimethoxyquinolin-4-yloxy)-3-fluorophenyl]amide] are below 10 nM and below 10 nM.
As for `COc1cc2nccc(Oc3ccc(NC(=O)c4cn(C)c(=O)n(-c5ccc(F)cc5)c4=O)cc3F)c2cc1OC` [Example 2, 3-(4-Fluorophenyl)-1-methyl-2,4-dioxo-1,2,3,4-tetrahydropyrimidine-5-carboxylic acid [4-(6,7-dimethoxyquinolin-4-yloxy)-3-fluoro-phenyl]-amide], the half-maximal inhibitory concentration (IC50) in test [1] and in test [2] (setting [3]) was below 10 nM throughout.
Turning to `COCCn1cc(C(=O)Nc2ccc(Oc3ccnc4cc(OC)c(OC)cc34)c(F)c2)c(=O)n(-c2ccc(F)cc2)c1=O` [Example 3, 3-(4-Fluorophenyl)-1-(2-methoxyethyl)-2,4-dioxo-1,2,3,4-tetrahydropyrimidine-5-carboxylic acid [4-(6,7-dimethoxyquinolin-4-yloxy)-3-fluorophenyl]-amide], the IC50 was below 10 nM in test [1] and 10 to 100 nM in test [2] (setting [3]).
With `CCOCCn1cc(C(=O)Nc2ccc(Oc3ccnc4cc(OC)c(OC)cc34)c(F)c2)c(=O)n(-c2ccc(F)cc2)c1=O` [Example 4, 1-(2-Ethoxyethyl)-3-(4-fluorophenyl)-2,4-dioxo-1,2,3,4-tetrahydropyrimidine-5-carboxylic acid [4-(6,7-dimethoxyquinolin-4-yloxy)-3-fluorophenyl]-amide], the IC50 in test [1] was below 10 nM; in test [2] (setting [3]), 10 to 100 nM.
`COc1cc2nccc(Oc3ccc(NC(=O)c4cn(C(C)C)c(=O)n(-c5ccc(F)cc5)c4=O)cc3F)c2cc1OC` [Example 5, 3-(4-Fluorophenyl)-1-isopropyl-2,4-dioxo-1,2,3,4-tetrahydropyrimidine-5-carboxylic acid [4-(6,7-dimethoxyquinolin-4-yloxy)-3-fluorophenyl]-amide]: the IC50 is below 10 nM in test [1] and 10 to 100 nM in test [2].
On to `COc1cc2nccc(Oc3ccc(NC(=O)c4cn(CC5CC5)c(=O)n(-c5ccc(F)cc5)c4=O)cc3F)c2cc1OC` [Example 6, 1-Cyclopropylmethyl-3-(4-fluorophenyl)-2,4-dioxo-1,2,3,4-tetrahydropyrimidine-5-carboxylic acid [4-(6,7-dimethoxyquinolin-4-yloxy)-3-fluorophenyl]-amide], for which the IC50 in test [1] and in test [2] (setting [3]) was below 10 nM in each case.
Consider `COCCCn1cc(C(=O)Nc2ccc(Oc3ccnc4cc(OC)c(OC)cc34)c(F)c2)c(=O)n(-c2ccc(F)cc2)c1=O` [Example 7, 3-(4-Fluorophenyl)-1-(3-methoxypropyl)-2,4-dioxo-1,2,3,4-tetrahydropyrimidine-5-carboxylic acid [4-(6,7-dimethoxyquinolin-4-yloxy)-3-fluorophenyl]-amide], for which the values for the IC50 in test [1] and in test [2] (setting [3]) were below 10 nM and 10 to 100 nM, respectively.
On to `COc1cc2nccc(Oc3ccc(NC(=O)c4cn(CC(C)C)c(=O)n(-c5ccc(F)cc5)c4=O)cc3F)c2cc1OC` [Example 8, 3-(4-Fluorophenyl)-1-isobutyl-2,4-dioxo-1,2,3,4-tetrahydropyrimidine-5-carboxylic acid [4-(6,7-dimethoxyquinolin-4-yloxy)-3-fluorophenyl]-amide], for which the IC50 is below 10 nM in test [1] and 10 to 100 nM in test [2] (setting [3]).
Consider `C=CCn1cc(C(=O)Nc2ccc(Oc3ccnc4cc(OC)c(OC)cc34)c(F)c2)c(=O)n(-c2ccc(F)cc2)c1=O` [Example 9, 1-Allyl-3-(4-fluorophenyl)-2,4-dioxo-1,2,3,4-tetrahydropyrimidine-5-carboxylic acid [4-(6,7-dimethoxyquinolin-4-yloxy)-3-fluorophenyl]-amide], for which the concentration for half-maximal inhibition (IC50) in test [1] and in test [2] (setting [3]) was below 10 nM in each case.
Take `CCCn1cc(C(=O)Nc2ccc(Oc3ccnc4cc(OC)c(OC)cc34)c(F)c2)c(=O)n(-c2ccc(F)cc2)c1=O` [Example 11, 3-(4-Fluorophenyl)-2,4-dioxo-1-propyl-1,2,3,4-tetrahydropyrimidine-5-carboxylic acid [4-(6,7-dimethoxyquinolin-4-yloxy)-3-fluorophenyl]-amide]: the IC50 is below 10 nM in test [1] and 10 to 100 nM in test [2] (setting [3]).
With `COc1cc2nccc(Oc3ccc(NC(=O)c4cn(CC=C(F)F)c(=O)n(-c5ccc(F)cc5)c4=O)cc3F)c2cc1OC` [Example 14, 1-(3,3-Difluoro-allyl)-3-(4-fluorophenyl)-2,4-dioxo-1,2,3,4-tetrahydropyrimidine-5-carboxylic acid [4-(6,7-dimethoxyquinolin-4-yloxy)-3-fluorophenyl]-amide], the half-maximal inhibitory concentration (IC50) in test [1] and in test [2] (setting [3]) was below 10 nM throughout.
In the case of `COc1cc2nccc(Oc3ccc(NC(=O)c4cn(CCN5CCOCC5)c(=O)n(-c5ccc(F)cc5)c4=O)cc3F)c2cc1OC` [Example 16, 3-(4-Fluorophenyl)-1-(2-morpholin-4-yl-ethyl)-2,4-dioxo-1,2,3,4-tetrahydropyrimidine-5-carboxylic acid [4-(6,7-dimethoxyquinolin-4-yloxy)-3-fluorophenyl]-amide], the concentration for half-maximal inhibition (IC50) in test [1] and in test [2] (setting [3]) was below 10 nM each time.
In the case of `CCn1cc(C(=O)Nc2ccc(Oc3ccnc4cc(OC)cc(OC)c34)cc2)c(=O)n(-c2ccc(F)cc2)c1=O` [Example 39, 1-Ethyl-3-(4-fluorophenyl)-2,4-dioxo-1,2,3,4-tetrahydropyrimidine-5-carboxylic acid [4-(5,7-dimethoxyquinolin-4-yloxy)-phenyl]-amide], the concentration for half-maximal inhibition (IC50) in test [1] was below 10 nM.
In the case of `COc1cc2nccc(Oc3ccc(NC(=O)c4cn(Cc5csc(C)n5)c(=O)n(-c5ccc(F)cc5)c4=O)cc3F)c2cc1OC` [Example 75, 3-(4-Fluoro-phenyl)-1-(2-methyl-thiazol-4-ylmethyl)-2,4-dioxo-1,2,3,4-tetrahydro-pyrimidine-5-carboxylic acid [4-(6,7-dimethoxy-quinolin-4-yloxy)-3-fluoro-phenyl]-amide], in test [1], the IC50 was below 10 nM.
For `COc1cc2nccc(Oc3ccc(NC(=O)c4cn(C5CCCC5)c(=O)n(-c5ccc(F)cc5)c4=O)cc3F)c2cc1OC` [Example 76, 1-Cyclopentyl-3-(4-fluoro-phenyl)-2,4-dioxo-1,2,3,4-tetrahydro-pyrimidine-5-carboxylic acid [4-(6,7-dimethoxy-quinolin-4-yloxy)-3-fluoro-phenyl]-amide], the half-maximal inhibitory concentration (IC50) in test [1] was below 10 nM.
As for `CCn1cc(C(=O)Nc2ccc(Oc3ccnc4ccc(OC)c(OC)c34)cc2)c(=O)n(-c2ccc(F)cc2)c1=O` [Example 167, 1-Ethyl-3-(4-fluoro-phenyl)-2,4-dioxo-1,2,3,4-tetrahydro-pyrimidine-5-carboxylic acid [4-(5,6-dimethoxy-quinolin-4-yloxy)-phenyl]-amide], the IC50 in test [1] is below 10 nM.
